pIC50: −log10 of the molar value.
The molecules below were run against Protein-arginine deiminase type-4 (Homo sapiens, UniProt Q9UM07) (assay: In Vitro PAD4 BAEE Biochemical Assay).
Method: One hundred nanoliters of test compounds dissolved in DMSO at various concentrations were dispensed into a 384-well black OptiPlate using a Labcyte Echo instrument. Ten microliters of a solution of recombinant PAD4 and calcium chloride diluted in PAD4 assay buffer (50 mM MOPS [3-(N-morpholino) propanesulfonic acid], pH 7.6; 50 mM sodium chloride; 0.05% Tween-20; 2 mM dithiothreitol) was added to the compound-containing plate and was incubated for 30 minutes at 25° C. Ten microliters of a solution of BAEE (Sigma-Aldrich #B4500) diluted in PAD4 assay buffer was then added to start the reaction. Final concentrations were 5 nM PAD4, 2 mM calcium chloride, and 3 mM BAEE. The reaction mixture was incubated at 25° C. for 2 hours and was stopped with the addition of 10 microliters of a solution of 75 mM EDTA (Ethylenediaminetetraacetic acid) in PAD4 assay buffer. Thirty microliters of detection solution (5 mM o-phthalaldehyde, 50 mM MOPS [3-(N-morpholino) propanesulfonic acid], pH 7.6; 50 mM sodium chloride; 0.05% Tween-20; 5 mM dithiothreitol) was then added and the reaction was incubated for 1 hour at 25° C.

Protein-arginine deiminase type-4, sequence (Q9UM07 whole entry): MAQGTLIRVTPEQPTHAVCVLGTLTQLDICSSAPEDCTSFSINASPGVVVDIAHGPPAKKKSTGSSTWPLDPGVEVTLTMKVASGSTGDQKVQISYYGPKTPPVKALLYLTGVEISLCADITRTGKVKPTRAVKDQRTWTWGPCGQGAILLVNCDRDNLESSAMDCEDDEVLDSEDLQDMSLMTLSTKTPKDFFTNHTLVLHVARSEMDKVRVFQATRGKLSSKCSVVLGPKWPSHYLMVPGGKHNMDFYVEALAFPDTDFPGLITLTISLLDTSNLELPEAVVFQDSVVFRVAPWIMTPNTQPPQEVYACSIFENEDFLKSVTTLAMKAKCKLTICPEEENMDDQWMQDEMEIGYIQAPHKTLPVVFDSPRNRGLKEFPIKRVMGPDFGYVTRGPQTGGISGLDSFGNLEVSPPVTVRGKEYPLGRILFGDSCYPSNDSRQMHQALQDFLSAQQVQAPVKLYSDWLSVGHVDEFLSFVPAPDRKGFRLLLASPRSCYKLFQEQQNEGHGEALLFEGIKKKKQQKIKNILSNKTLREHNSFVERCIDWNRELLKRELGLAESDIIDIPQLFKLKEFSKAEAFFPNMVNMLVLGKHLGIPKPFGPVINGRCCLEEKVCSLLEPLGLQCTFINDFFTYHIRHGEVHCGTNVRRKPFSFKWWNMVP

| pIC50 | SMILES |
| --- | --- |
| 6.64 | COc1cc(C(=O)N2[C@H]3CC[C@@H]2[C@H](N)C3)cc2nc(-c3cc4ccc([C@@H](C)NC(=O)C56CC(F)(C5)C6)c(F)c4n3CC3CC3)n(C)c12 [US11878965, Example 144] |
| 6.61 | COc1cc(C(=O)N2C[C@H](N)CC[C@@H]2C)cc2nc(-c3cc4ccc(-c5cccnc5-c5cccnc5Cl)nc4n3CC3CC3)n(C)c12 [US11878965, Example 258] |
| 5.91 | COc1cc(C(=O)N2C[C@H](N)CC[C@@H]2C)cc2nc(-c3cc4ccc(N5C(=O)CC[C@H]5C)nc4n3CC3CC3)n(C)c12 [US11878965, Example 284] |
| 7.16 | COc1cc(C(=O)N2C[C@H](N)[C@@H]3CC[C@H]2C3)cc2nc(-c3cc4ccc([C@@H](C)NC(=O)c5cccnc5Cl)nc4n3CC3CC3)n(C)c12 [US11878965, Example 302] |

| SMILES | pIC50 |
| --- | --- |
| COc1cc(C(=O)N2[C@H]3CC[C@@H]2[C@H](N)C3)cc2nc(-c3cc4ccc([C@@H](C)NC(=O)N5CC(F)(F)C5)nc4n3CC3CC3)n(C)c12 [US11878965, Example 238] | 7.54 |
